{"source": "patent US8993718B2", "about": "“Methods and compositions for detecting and modulating O-glycosylation” (President and Fellows of Harvard College, priority 2007, dated 2015)", "type_in_all_cases": "biochemical", "key": {"ppGalNAcT2": {"biological_target": "ppGalNAcT2 (Homo sapiens, UniProt Q10471)", "sequence (Q10471 whole entry, canonical isoform)": "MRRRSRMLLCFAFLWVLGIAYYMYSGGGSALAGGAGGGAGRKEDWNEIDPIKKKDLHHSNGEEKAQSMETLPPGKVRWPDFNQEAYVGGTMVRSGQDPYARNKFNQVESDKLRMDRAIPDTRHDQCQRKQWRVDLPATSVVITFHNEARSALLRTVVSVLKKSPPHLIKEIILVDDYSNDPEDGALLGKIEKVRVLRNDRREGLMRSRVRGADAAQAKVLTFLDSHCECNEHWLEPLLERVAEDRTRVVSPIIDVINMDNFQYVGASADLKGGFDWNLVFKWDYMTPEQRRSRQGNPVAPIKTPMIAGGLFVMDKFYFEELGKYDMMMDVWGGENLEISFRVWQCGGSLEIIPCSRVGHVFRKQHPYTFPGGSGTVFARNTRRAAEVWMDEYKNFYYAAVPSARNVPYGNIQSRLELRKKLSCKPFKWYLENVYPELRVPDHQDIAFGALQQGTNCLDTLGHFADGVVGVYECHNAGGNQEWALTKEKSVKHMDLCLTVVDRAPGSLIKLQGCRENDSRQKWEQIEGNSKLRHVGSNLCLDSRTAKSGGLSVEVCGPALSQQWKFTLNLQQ", "assay": "Protease protection assay for ppGalNAcT2", "method": "(§1) There are multiple isoforms of the enzyme polypeptide N-acetylgalactosaminyltranferases (ppGalNAcTs). Activity of ppGalNAcTs are illustrated in FIG. 14. Using assay methods as described above, peptide substrates for ppGalNAcTs were prepared and used to assay to identify modulators of ppGalNAcTs activity. Peptide substrates EPGPTEAPK (SEQ ID NO:25) and EDAVTPGPK (SEQ ID NO:26) were prepared (see FIG. 15) and utilized to assay for modulators of the enzymes. Each peptide substrate include a proteinase K cleavage site. The identified compound SEQ ID NO:25 is a general substrate for ppGalNAcTs and identified compound SEQ ID NO:26 is a selective substrate for the enzyme ppGalNAcT1. Assays were run and alterations in the rate and/or amount of cleavage by proteinase K was determined. […] The difference in cleavage permitted use of the assay to identify compounds that inhibit glycosylation of the substrate by ppGalNAcTs. Additional inhibitory compounds identified using the assay include Compound 24 and Compound 27 (see Table 1).\n(§2) It was determined that the assay could also be used to identify isoform selective inhibitors. […] The presence of the inhibitor disrupted crystal growth of the ppGalNAcT2."}, "ppGalNAcTs": {"test_system": "ppGalNAcTs", "assay": "Protease protection assay for ppGalNAcTs (general)", "method": "as §1"}, "ppGalNAcT1": {"biological_target": "T1, ppGalNAcT1 (Homo sapiens, UniProt Q10472)", "T1 sequence (Q10472 1-559)": "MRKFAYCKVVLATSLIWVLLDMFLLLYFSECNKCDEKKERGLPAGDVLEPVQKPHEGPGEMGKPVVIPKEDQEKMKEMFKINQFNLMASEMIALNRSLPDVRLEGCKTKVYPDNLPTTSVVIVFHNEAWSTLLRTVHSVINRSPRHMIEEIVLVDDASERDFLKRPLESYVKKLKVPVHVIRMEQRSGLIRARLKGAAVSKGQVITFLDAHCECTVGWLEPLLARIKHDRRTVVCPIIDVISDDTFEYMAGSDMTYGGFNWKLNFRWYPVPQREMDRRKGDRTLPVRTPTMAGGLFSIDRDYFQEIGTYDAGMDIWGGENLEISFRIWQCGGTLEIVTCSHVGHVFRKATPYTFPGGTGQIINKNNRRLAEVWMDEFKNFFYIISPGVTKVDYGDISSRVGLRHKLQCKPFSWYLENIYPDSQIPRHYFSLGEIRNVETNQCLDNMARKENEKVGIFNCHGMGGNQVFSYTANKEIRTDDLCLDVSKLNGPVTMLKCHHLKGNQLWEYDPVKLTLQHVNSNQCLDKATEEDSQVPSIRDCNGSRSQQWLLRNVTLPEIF", "assay": "Protease protection assay for ppGalNAcT1", "method": "as §1, §2"}, "[1]": {"biological_target": "T2, O-Linked N-acetylglucosaminyltransferase (OGT) (Homo sapiens, UniProt O15294)", "T2 sequence (O15294 1-1046)": "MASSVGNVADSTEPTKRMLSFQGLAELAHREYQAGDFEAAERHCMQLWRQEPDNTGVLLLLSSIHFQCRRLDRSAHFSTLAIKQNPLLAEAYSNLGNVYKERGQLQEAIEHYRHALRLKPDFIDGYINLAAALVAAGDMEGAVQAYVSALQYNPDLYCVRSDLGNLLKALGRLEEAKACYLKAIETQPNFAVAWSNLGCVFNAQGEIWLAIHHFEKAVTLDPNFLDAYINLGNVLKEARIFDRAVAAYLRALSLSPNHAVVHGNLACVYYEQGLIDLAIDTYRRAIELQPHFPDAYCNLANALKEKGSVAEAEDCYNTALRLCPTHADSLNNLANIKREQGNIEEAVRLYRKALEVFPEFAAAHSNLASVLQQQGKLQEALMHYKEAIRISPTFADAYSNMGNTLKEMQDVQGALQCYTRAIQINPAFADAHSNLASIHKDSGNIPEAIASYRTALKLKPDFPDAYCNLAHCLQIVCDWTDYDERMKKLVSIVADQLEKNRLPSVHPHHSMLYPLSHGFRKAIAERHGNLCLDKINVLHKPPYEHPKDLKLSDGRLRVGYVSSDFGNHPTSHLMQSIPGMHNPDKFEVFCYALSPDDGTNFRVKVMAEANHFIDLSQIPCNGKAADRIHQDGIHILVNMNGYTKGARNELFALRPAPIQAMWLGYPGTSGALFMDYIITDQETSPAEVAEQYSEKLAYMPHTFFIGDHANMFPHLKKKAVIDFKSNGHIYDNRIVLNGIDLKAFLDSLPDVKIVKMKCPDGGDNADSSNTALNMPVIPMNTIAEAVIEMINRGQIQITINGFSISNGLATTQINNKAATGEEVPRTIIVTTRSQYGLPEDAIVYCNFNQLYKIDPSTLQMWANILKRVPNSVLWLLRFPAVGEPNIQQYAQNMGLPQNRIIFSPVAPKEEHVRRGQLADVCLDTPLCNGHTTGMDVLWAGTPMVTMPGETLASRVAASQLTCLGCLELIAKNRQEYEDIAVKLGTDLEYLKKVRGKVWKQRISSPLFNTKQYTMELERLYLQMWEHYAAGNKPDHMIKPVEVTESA", "assay": "Glycosylation of CK2-derived polypeptide substrates by OGT, quantified by LC/MS", "method": "To address the first requirement, a panel of polypeptides was synthesized based on a truncated version of the CKII polypeptide [CKII peptide PGGSTPVSSNAMM (SEQ ID NO:20)]. The polypeptide was modified from the native sequence in several ways. First, a fluorescein was installed on the N-terminus during synthesis. Second, a lysine was added to the C-terminus so that a second dye or quencher could be installed by reaction with the appropriate N-hydroxysuccinimidyl ester. These modifications allowed two different FRET approaches. The first approach required the installation of a coumarin derivative on the polypeptide. The second required installation of a quencher molecule, which measured total fluorescence intensity. (See Examples 2 and 3). Finally, the residues on either side of the glycosylated serine of the truncated CK2 polypeptide were changed to phenylalanine, leucine or arginine to introduce proteolytic cleavage sites for common proteases (such as trypsin, chymotrypsin and thermolysin) that were not present in the native sequence. It was reasoned that cleavage adjacent to the glycosylation site would yield the largest difference in the rate of proteolysis between glycosylated and native polypeptides. This series of polypeptides was synthesized and screened for OGT activity using by LC/MS. Peak integration (measured at 445 nm) was used to quantitative products and reactants and mass spectrometry was used to confirm peak identity. The results are presented in Table 2 and some of the peptides (peptide 4.1, 4.4, and 4.5 top to bottom) are illustrated in FIG. 2.\nAll polypeptides were purchased from Tufts University core facility (Boston, Mass.). The mass of crude product was verified and the polypeptides were labeled under the following conditions: Polypeptide was dissolved in 250 mM NaHCO3 buffer, pH 8.2 at a 5 mM concentration and the appropriate NHS-Ester (0.5 eq) was dissolved in DMSO (a volume of 1/10 of the aqueous buffer was used). The DMSO solution was quickly added to the peptide and the reaction proceeded at room temperature for 30 minutes. This was repeated 2 more times (four more times for polypeptide 4.10). The reaction was monitored by LC/MS. LCMS conditions for polypeptides 4.1-4.8—Agilent Eclipse 5 μm XD8-C8 column, 0→100% CH3CN+0.1% formic acid over 20 minutes. LCMS conditions for polypeptides 4.9-4.10—Agilent Eclipse 5 μm XD8-C8 column, 0→100% CH3CN+0.1% NH4OH over 20 minutes. Each polypeptide was purified by preparative HPLC. Conditions for polypeptides 4.1-4.8 were: —Phenomonex Luna C18 5 μm column, 0→100% CH3CN+0.1% TFA over 40 minutes. Conditions for polypeptides 4.9-4.10 were: —Phenomonex Luna C18 5 μm column, 0→100% CH3CN+0.1% NH4OH over 40 minutes. Products were confirmed by LC/MS. Preparative Glycosylation of Labeled Polypeptides: Purified FRET labeled polypeptides were added (20-50 μM final concentration) to assay buffer (50 mM Tris, 20 mM CaCl2, 0.05% Tween-20, 0.05% NP-40, pH=7.8), 200 μM UDP-GlcNAc, 0.05 units of alkaline phosphatase, and 5 μM OGT. Reactions were monitored using LCMS: conditions for polypeptides 4.1-4.8—Agilent Eclipse 5 μm XD8-C8 column, 10→60% CH3CN+0.1% formic acid over 20 minutes. LCMS conditions for polypeptides 4.9-4.10—Agilent Eclipse 5 μm XD8-C8 column, 10→60% CH3CN+0.1% NH4OH over 20 minutes, and when complete were purified using the same column and conditions. Polypeptides 4.1-4.8 were quantitated by absorption at 492 nm using an extinction coefficient of 86,000 cm^−1M^−1; polypeptide 4.9 was quantitated by absorption at 530 nm using an extinction coefficient of 26,000 cm^−1M^−1; polypeptide 4.10 was quantitated by absorption at 530 nm using an extinction coefficient of 52,000 cm^−1M^−1. Fluorescence Resonance Energy Transfer (FRET)-Peptide Approach #1"}}, "note": "“Also recorded” adds a separate entry of the source. Non-standard residues stand in square brackets, D forms with d. Primed or numbered codes have the meaning given here. No end group written: not given here. *: point of attachment. FITC = O=C1OC2(c3ccc(O)cc3Oc3cc(O)ccc32)c2ccc(NC(=S)*)cc21; Aha′ = not defined here", "data": [{"compound": "O=C1NC(=O)N(Cc2ccco2)C(=O)/C1=C\\c1ccco1", "note": "[Compound 25]", "values": [{"measurement": "isoform selectivity ppGalNAcT2 vs ppGalNAcT1", "setting": "ppGalNAcT2; FIG. 18B", "result": "more selective inhibitor for ppGalNAcT2 than for ppGalNAcT1; also recorded: more selectively inhibits ppGalNAcT2 than ppGalNAcT1"}]}, {"compound": "O=C1NC(=S)NC(=O)C1=C/C=C\\c1ccco1", "note": "[Compound 26]", "values": [{"measurement": "inhibition of ppGalNAcTs", "setting": "ppGalNAcTs", "result": "inhibitors"}]}, {"compound": "O=C(O)CCCCCn1c(SCC(=O)c2ccc(O)c(O)c2)nc2ccsc2c1=O", "note": "[Compound 27]", "values": [{"measurement": "inhibition of ppGalNAcTs", "setting": "ppGalNAcTs", "result": "inhibitory; also recorded: inhibitors"}]}, {"compound": "O=C(O)CCCN1C(=O)C(O)=C(C(=O)/C=C\\c2ccccc2)C1c1ccccc1", "note": "(centres unmarked) [Compound 24]", "values": [{"measurement": "inhibition of ppGalNAcT1 (% glycosylation, FIG. 18)", "setting": "ppGalNAcT1", "result": "inhibits"}, {"measurement": "inhibition of ppGalNAcTs", "setting": "ppGalNAcTs", "result": "inhibitory; also recorded: inhibitors"}, {"measurement": "inhibition of ppGalNAcT2 (% glycosylation, FIG. 18)", "setting": "ppGalNAcT2", "result": "inhibits"}]}, {"compound": "FITC(Aha)STPVSSANMK ({FITC}-[Aha′]STPVSSANMK; reading uncertain; also: printed as FITC(Aha)STPVSSANMK) [Polypeptide 4.1]", "values": [{"measurement": "relative glycosylation rate", "setting": "[1]; FIG. 2, natural (wild-type) sequence set as reference", "result": 100, "unit": "%"}, {"measurement": "Relative rate of glycosylation", "setting": "[1]; OGT, LC/MS peak integration at 445 nm, relative to wt polypeptide 4.1", "result": 1}]}]}
